The supplement of paper PMC10307832

Experiments:
Assay in all cases: relative viability (nuclei count vs DMSO), 5 days (fraction); higher = more cells survive
LOU-NH91 = test system: LOU-NH91
Procedure, shortened: (§1)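 Lung cancer cell lines in 1536-well plates were dosed by pin tool the day after seeding, either with one drug alone or with a fixed anchor-drug dose plus five library-drug doses (not always all listed) in √10 steps. After 5 days, cells were fixed and their nuclei stained in one step (final 0.05% Triton X-100, 1% formaldehyde, 1 ug/ml Hoechst), then counted on 4× images. Relative viability is the nuclei count in treated wells divided by that in vehicle wells. Values are medians of duplicate plates.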

EPLC-272H = test system: EPLC-272H
Procedure, shortened: as §1

UMC-11 = test system: UMC-11
Procedure, shortened: as §1

H3255 = test system: H3255
Procedure, shortened: as §1

NCI-H2405 = test system: NCI-H2405
Procedure, shortened: as §1

NCI-H1975 = test system: NCI-H1975
Procedure, shortened: as §1

NCI-H1355 = test system: NCI-H1355
Procedure, shortened: as §1

201T = test system: 201T
Procedure, shortened: as §1

NCI-H1792 = test system: NCI-H1792
Procedure, shortened: as §1

NCI-H1944 = test system: NCI-H1944
Procedure, shortened: as §1

NCI-H1651 = test system: NCI-H1651
Procedure, shortened: as §1

NCI-H1666 = test system: NCI-H1666
Procedure, shortened: as §1

NCI-H1793 = test system: NCI-H1793
Procedure, shortened: as §1

SK-LU-1 = test system: SK-LU-1
Procedure, shortened: as §1

NCI-H2023 = test system: NCI-H2023
Procedure, shortened: as §1

NCI-H1734 = test system: NCI-H1734
Procedure, shortened: as §1

NCI-H647 = test system: NCI-H647
Procedure, shortened: as §1

RERF-LC-KJ = test system: RERF-LC-KJ
Procedure, shortened: as §1

NCI-H1915 = test system: NCI-H1915
Procedure, shortened: as §1

`COCC1(CO)C(=O)C2CCN1CC2` (configuration not stated) [PRIMA-1MET] + CS(=O)(=O)CCNCc1ccc(-c2ccc3ncnc(Nc4ccc(OCc5cccc(F)c5)c(Cl)c4)c3c2)o1 [Lapatinib] (partner 2 µM) was tested, and the relative viability (LOU-NH91; first compound 0.2 µM) was 0.806, the relative viability (LOU-NH91; first compound 0.6325 µM) was 0.715 and the relative viability (LOU-NH91; first compound 2 µM) was 0.656. The relative viability (LOU-NH91; first compound 6.325 µM) was 0.692, the relative viability (LOU-NH91; first compound 20 µM) was 0.496 and the relative viability (EPLC-272H; first compound 0.2 µM) was 0.871. The relative viability (EPLC-272H; first compound 0.6325 µM) was 0.767, the relative viability (EPLC-272H; first compound 2 µM) was 0.905 and the relative viability (EPLC-272H; first compound 6.325 µM) was 0.971. For the same molecule, the relative viability (EPLC-272H; first compound 20 µM) was 0.333, the relative viability (UMC-11; first compound 0.2 µM) was 1.12 and the relative viability (UMC-11; first compound 0.6325 µM) was 0.898. For the same molecule, the relative viability (UMC-11; first compound 2 µM) was 0.755, the relative viability (UMC-11; first compound 6.325 µM) was 0.961 and the relative viability (UMC-11; first compound 20 µM) was 0.991. The relative viability (H3255; first compound 0.2 µM) was 0.231, the relative viability (H3255; first compound 0.6325 µM) was 0.21 and the relative viability (H3255; first compound 2 µM) was 0.225. The relative viability (H3255; first compound 6.325 µM) was 0.237, the relative viability (H3255; first compound 20 µM) was 0.195 and the relative viability (NCI-H2405; first compound 0.2 µM) was 0.77. For the same molecule, the relative viability (NCI-H2405; first compound 0.6325 µM) was 1.17, the relative viability (NCI-H2405; first compound 6.325 µM) was 0.85 and the relative viability (NCI-H2405; first compound 20 µM) was 0.0796. The relative viability (NCI-H1975; first compound 0.2 µM) was 0.988, the relative viability (NCI-H1975; first compound 0.6325 µM) was 0.786 and the relative viability (NCI-H1975; first compound 2 µM) was 0.774. The relative viability (NCI-H1975; first compound 6.325 µM) was 0.947, the relative viability (NCI-H1975; first compound 20 µM) was 0.816 and the relative viability (NCI-H1355; first compound 0.2 µM) was 1.12. The relative viability (NCI-H1355; first compound 0.6325 µM) was 0.933, the relative viability (NCI-H1355; first compound 2 µM) was 0.893 and the relative viability (NCI-H1355; first compound 6.325 µM) was 1. The relative viability (NCI-H1355; first compound 20 µM) was 0.998, the relative viability (201T; first compound 0.2 µM) was 1.15 and the relative viability (201T; first compound 0.6325 µM) was 0.695. It also gave a relative viability (201T; first compound 2 µM) of 0.834, a relative viability (201T; first compound 6.325 µM) of 1.07 and a relative viability (201T; first compound 20 µM) of 1.01. For the same molecule, the relative viability (NCI-H1792; first compound 0.2 µM) was 0.825, the relative viability (NCI-H1792; first compound 0.6325 µM) was 0.769 and the relative viability (NCI-H1792; first compound 2 µM) was 0.868. The relative viability (NCI-H1792; first compound 6.325 µM) was 0.963, the relative viability (NCI-H1792; first compound 20 µM) was 0.807 and the relative viability (NCI-H1944; first compound 0.2 µM) was 0.971. The relative viability (NCI-H1944; first compound 0.6325 µM) was 0.6, the relative viability (NCI-H1944; first compound 6.325 µM) was 0.836 and the relative viability (NCI-H1944; first compound 20 µM) was 0.823. It also gave a relative viability (NCI-H1651; first compound 0.2 µM) of 0.917, a relative viability (NCI-H1651; first compound 0.6325 µM) of 0.731 and a relative viability (NCI-H1651; first compound 2 µM) of 0.659. The relative viability (NCI-H1651; first compound 6.325 µM) was 0.839, the relative viability (NCI-H1651; first compound 20 µM) was 0.736 and the relative viability (NCI-H1666; first compound 0.2 µM) was 0.765. It also gave a relative viability (NCI-H1666; first compound 0.6325 µM) of 0.584, a relative viability (NCI-H1666; first compound 2 µM) of 0.596 and a relative viability (NCI-H1666; first compound 6.325 µM) of 0.688. It also gave a relative viability (NCI-H1666; first compound 20 µM) of 0.275, a relative viability (NCI-H1793; first compound 0.2 µM) of 0.707 and a relative viability (NCI-H1793; first compound 0.6325 µM) of 0.68. It also gave a relative viability (NCI-H1793; first compound 6.325 µM) of 0.592, a relative viability (NCI-H1793; first compound 20 µM) of 0.646 and a relative viability (SK-LU-1; first compound 0.2 µM) of 1.12. It also gave a relative viability (SK-LU-1; first compound 0.6325 µM) of 0.667, a relative viability (SK-LU-1; first compound 2 µM) of 0.61 and a relative viability (SK-LU-1; first compound 6.325 µM) of 0.784. For the same molecule, the relative viability (SK-LU-1; first compound 20 µM) was 0.235, the relative viability (NCI-H2023; first compound 0.2 µM) was 0.991 and the relative viability (NCI-H2023; first compound 0.6325 µM) was 0.26. For the same molecule, the relative viability (NCI-H2023; first compound 2 µM) was 0.639, the relative viability (NCI-H2023; first compound 6.325 µM) was 0.893 and the relative viability (NCI-H2023; first compound 20 µM) was 0.841. It also gave a relative viability (NCI-H1734; first compound 0.2 µM) of 1.43, a relative viability (NCI-H1734; first compound 0.6325 µM) of 0.98 and a relative viability (NCI-H1734; first compound 2 µM) of 0.857. For the same molecule, the relative viability (NCI-H1734; first compound 6.325 µM) was 1.07, the relative viability (NCI-H1734; first compound 20 µM) was 0.591 and the relative viability (NCI-H647; first compound 0.2 µM) was 1.29. It also gave a relative viability (NCI-H647; first compound 0.6325 µM) of 1.09, a relative viability (NCI-H647; first compound 2 µM) of 0.759 and a relative viability (NCI-H647; first compound 6.325 µM) of 1.29. For the same molecule, the relative viability (NCI-H647; first compound 20 µM) was 0.783, the relative viability (RERF-LC-KJ; first compound 0.2 µM) was 1.01 and the relative viability (RERF-LC-KJ; first compound 0.6325 µM) was 0.86. The relative viability (RERF-LC-KJ; first compound 2 µM) was 0.874, the relative viability (RERF-LC-KJ; first compound 6.325 µM) was 0.928 and the relative viability (RERF-LC-KJ; first compound 20 µM) was 0.883. The relative viability (NCI-H1915; first compound 0.2 µM) was 1.07, the relative viability (NCI-H1915; first compound 0.6325 µM) was 0.845 and the relative viability (NCI-H1915; first compound 2 µM) was 0.864. For the same molecule, the relative viability (NCI-H1915; first compound 6.325 µM) was 0.925 and the relative viability (NCI-H1915; first compound 20 µM) was 0.958.
